This passage reports EC50 results from US7268147B2, “Compounds useful for the treatment of diseases” (Pfizer Inc, priority 2003, dated 2007).

In this test the target is T1, human β2 adrenergic receptor (Homo sapiens, UniProt P07550).
T1 construct: expressed in transfected cells; host or cells: CHO (Chinese Hamster Ovary) cells, CHOhβ2
T1 sequence (P07550 whole entry): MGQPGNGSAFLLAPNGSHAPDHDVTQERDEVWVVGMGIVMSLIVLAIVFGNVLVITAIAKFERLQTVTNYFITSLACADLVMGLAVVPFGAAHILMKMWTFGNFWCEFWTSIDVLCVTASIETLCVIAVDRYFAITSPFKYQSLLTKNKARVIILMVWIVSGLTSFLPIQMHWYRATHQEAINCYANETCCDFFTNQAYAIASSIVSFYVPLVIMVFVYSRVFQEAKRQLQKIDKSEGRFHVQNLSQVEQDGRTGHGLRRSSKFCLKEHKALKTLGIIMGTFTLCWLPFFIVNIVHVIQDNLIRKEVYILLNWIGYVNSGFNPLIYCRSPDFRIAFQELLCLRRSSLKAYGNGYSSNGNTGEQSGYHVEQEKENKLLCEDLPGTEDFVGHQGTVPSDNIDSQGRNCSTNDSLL
Kind of test: Cell based cAMP β2 assay (cAMP-Flashplate, CHOhβ2 cells). The settings on record: CHO cells recombinantly expressing the human β2 adrenergic receptor. How it is done:
According to another alternative, the agonist potency for the β2 receptor of the compounds of the formula (1) may also be determined by the measure of the concentration of compound according to the present invention required to produce half maximal effect (EC50) for the β2 receptor.
10 mM/100% DMSO (dimethylsulfoxide) stock of compound is diluted to required top dose in 4% DMSO. This top dose is used to construct a 10-point semi-log dilution curve, all in 4% DMSO. […] Data was expressed as % Isoprenaline response.
Cells were seeded to give about 90% confluency for testing.
25 μl/well each dose of compound was transferred into a cAMP-Flashplate® (NEN, SMP004B), with 1% DMSO as basal controls and 100 nM Isoprenaline as max controls. This was diluted 1:2 by the addition of 25 μl/well PBS. […] Compounds were incubated with 50 μu/well cells for 1 hour. […] Dose-response data was expressed as % Isoprenaline activity and fitted using a four parameter sigmoid fit.
Usually EC50 stands for the concentration at which the effect is half-maximal. Turning to `COc1cccc(OC)c1CNC(=O)Cc1cccc(C[C@@H](C)NC[C@H](O)c2ccc(O)c(CO)c2)c1` [Example 1, N-(2,6-Dimethoxybenzyl)-2-(3-{(2R)-2-[(2R)-2-hydroxy-2-(4-hydroxy-3-hydroxymethyl-phenyl)-ethylamino]-propyl}-phenyl)-acetamide], the EC50 turned out to be 0.017 nM.

Take `C[C@H](Cc1cccc(CC(=O)NCc2ccccc2O)c1)NC[C@H](O)c1ccc(O)c(CO)c1` [Example 3, N-(2-Hydroxybenzyl)-2-(3-{(2R)-2-[(2R)-2-hydroxy-2-(4-hydroxy-3-hydroxymethyl-phenyl)-ethylamino]-propyl}-phenyl)-acetamide]: the 50% effective concentration (EC50) worked out at 0.007 nM.

For the molecule `C[C@H](Cc1cccc(CC(=O)NC2Cc3ccccc3C2)c1)NC[C@H](O)c1ccc(O)c(CO)c1` [Example 4, 2-(3-{(2R)-2-[(2R)-2-Hydroxy-2-(4-hydroxy-3-hydroxymethyl-phenyl)-ethylamino]-propyl}-phenyl)-N-indan-2-yl-acetamide], the EC50 was 0.012 nM.

As to `C[C@H](Cc1cccc(CC(=O)NCc2ccc(Cl)c(Cl)c2)c1)NC[C@H](O)c1ccc(O)c(CO)c1` [Example 5, N-(3,4-Dichlorobenzyl)-2-(3-{(2R)-2-[(2R)-2-hydroxy-2-(4-hydroxy-3-hydroxymethyl-phenyl)-ethylamino]-propyl}-phenyl)-acetamide], the EC50 turned out to be 0.024 nM.

For the molecule `C[C@H](Cc1cccc(CC(=O)NCc2ccc(S(N)(=O)=O)cc2)c1)NC[C@H](O)c1ccc(O)c(CO)c1` [Example 6, N-[4-(Aminosulfonyl)benzyl]-2-(3-{(2R)-2-[(2R)-2-hydroxy-2-(4-hydroxy-3-hydroxymethyl-phenyl)-ethylamino]-propyl}-phenyl)-acetamide], the EC50 is 0.007 nM.

`C[C@H](Cc1cccc(CC(=O)NCc2ccccn2)c1)NC[C@H](O)c1ccc(O)c(CO)c1` [Example 7, 2-(3-{(2R)-2-[(2R)-2-Hydroxy-2-(4-hydroxy-3-hydroxymethyl-phenyl)-ethylamino]-propyl}-phenyl)-N-(pyridin-2-ylmethyl)-acetamide]: the EC50 was determined as 0.028 nM.

For the molecule `C[C@H](Cc1cccc(CC(=O)NCc2ccc(C(N)=O)cc2)c1)NC[C@H](O)c1ccc(O)c(CO)c1` [Example 8, 4-{(2-(3-{(2R)-2-[(2R)-2-Hydroxy-2-(4-hydroxy-3-hydroxymethyl-phenyl)-ethylamino]-propyl}-phenyl)-acetylamino)-methyl}-benzamide], the EC50 was 0.01 nM.

For `C[C@H](Cc1cccc(CC(=O)NCc2ccc(OC(F)(F)F)cc2)c1)NC[C@H](O)c1ccc(O)c(CO)c1` [Example 10, 2-(3-{(2R)-2-[(2R)-2-Hydroxy-2-(4-hydroxy-3-hydroxymethyl-phenyl)-ethylamino]-propyl}-phenyl)-N-(4-trifluoromethoxybenzyl)-acetamide], the EC50 was determined as 0.114 nM.

On to `Cc1ccc(CNC(=O)Cc2cccc(C[C@@H](C)NC[C@H](O)c3ccc(O)c(CO)c3)c2)cc1C` [Example 12, N-(3,4-Dimethylbenzyl)-2-(3-{(2R)-2-[(2R)-2-hydroxy-2-(4-hydroxy-3-hydroxymethyl-phenyl)-ethylamino]-propyl}-phenyl)-acetamide], for which the 50% effective concentration (EC50) is 0.009 nM.

Turning to `C[C@H](Cc1cccc(CC(=O)NCCc2ccccc2)c1)NC[C@H](O)c1ccc(O)c(CO)c1` [Example 15, 2-(3-{(2R)-2-[(2R)-2-Hydroxy-2-(4-hydroxy-3-hydroxymethyl-phenyl)-ethylamino]-propyl}-phenyl)-N-(2-phenylethyl)acetamide], the concentration for a half-maximal effect (EC50) is 0.056 nM.
